One compound from patent publication US20200246298A1, “Composition for Preventing or Treating Asthma Comprising Fatty Acid as Active Ingredient” (Dongshin University Industry-Academy Cooperation, priority 2019, published 2020) can be followed below.

Type in all cases: in vivo, BALB/c mice
The test system of assay [1] is TNF-α. The assay is described as follows: RT-PCR analysis of lung, OVA-induced asthma. The following applies: palmitic acid 5, 25, 50 mg/kg oral, FIG. 27. As to the method:
(§1) In test groups, the animals determined to be healthy during the acclimation period were ranked by measuring the weight, and were randomly grouped so that the average weight of each group was uniform. The animals were divided into a total of 9 groups: a control group; a control group with OVA-induced asthma; a positive control group; groups administered with each of 50 mg/kg, 125 mg/kg and 250 mg/kg of oleic acid; and groups administered with each of 5 mg/kg, 25 mg/kg and 50 mg/kg of palmitic acid. The animals were sensitized via intraperitoneal injection of OVA once a week for 2 weeks after the acclimation period. During 5 days of week 3, dexamethasone (DEX) and the test substances oleic acid and palmitic acid were orally administered in the morning and 5% OVA solution was inhaled in the afternoon. The test substance was orally administered in an amount of 28 μL per weight (g) of the experimental animal, and OVA for sensitization was administered in a constant amount regardless of the weight. After 5 days of administration, autopsy was performed the next day.
(§2) In order to evaluate changes in the cDNA levels of IFN-γ, IL-12p40, IL-4, IL-5, IL-13, TNF-α, and IL-6, which are related to asthma induction, RT-PCR analysis was performed as in a previous study protocol (Lee et al., 2017). Total RNA was extracted from the lung using the RNeasy Mini Kit (Qiagen, Hilden, Germany) according to the manufacturer's instructions. Total RNA (100 ng) was used as a template for the reaction.
(§3) The RT-PCR cycles consisted of denaturation at 95° C. for 5 sec and annealing/extension at 65° C. for 30 sec for 40 cycles. The results were obtained using an Axioscope A1 (Carl Zeiss, Gottingen, Germany).

Assay [2] concerns IL-13. The assay is described as follows: RT-PCR analysis of lung, OVA-induced asthma. The note with it: palmitic acid 5, 25, 50 mg/kg oral, FIG. 27. As to the method:
as §1, §2, §3

The subject of assay [3] is IL-6. The assay is described as follows: RT-PCR analysis of lung, OVA-induced asthma. The note with it: palmitic acid 5, 25, 50 mg/kg oral, FIG. 27. As to the method:
as §1, §2, §3

The test system of assay [4] is TNF-α. The assay is described as follows: ELISA analysis in lung tissue, OVA-induced asthma. The note with it: palmitic acid 5, 25, 50 mg/kg oral, particularly the 50 mg/kg group, FIG. 25. As to the method: (§4) In test groups, the animals determined to be healthy during the acclimation period were ranked by measuring the weight, and were randomly grouped so that the average weight of each group was uniform. The animals were divided into a total of 9 groups: a control group; a control group with OVA-induced asthma; a positive control group; groups administered with each of 50 mg/kg, 125 mg/kg and 250 mg/kg of oleic acid; and groups administered with each of 5 mg/kg, 25 mg/kg and 50 mg/kg of palmitic acid. The animals were sensitized via intraperitoneal injection of OVA once a week for 2 weeks after the acclimation period. During 5 days of week 3, dexamethasone (DEX) and the test substances oleic acid and palmitic acid were orally administered in the morning and 5% OVA solution was inhaled in the afternoon. The test substance was orally administered in an amount of 28 μL per weight (g) of the experimental animal, and OVA for sensitization was administered in a constant amount regardless of the weight. After 5 days of administration, autopsy was performed the next day. To analyze the levels of IFN-γ, IL-12p40, IL-4, IL-5, IL-6, and TNF-α in lung tissue, OptEIA mouse ELISAs were purchased from BD Biosciences. The IL-13 levels were assessed using the AbFrontier Cymax mouse FT ISA kit (AbFrontier, Seoul, Korea). All assays were performed according to the manufacturers' guidelines. All lung samples were prepared by a lysis buffer made with a protease inhibitor cocktail and an RIPA buffer (Thermo Fisher Scientific). Aliquots of lung tissue from all groups were weighed and homogenized with lysis buffer. They were then centrifuged at 8,200 rpm for 15 minutes, and the supernatants were harvested and measured using a microplate reader (EZ Read 400, Biochrom, Cambourne, UK).

The test system of assay [5] is IL-13. The assay is described as follows: ELISA analysis in lung tissue, OVA-induced asthma. The note with it: palmitic acid 5, 25, 50 mg/kg oral, particularly the 50 mg/kg group, FIG. 24. As to the method:
as §4

Another assay deals with IL-4. The assay is described as follows: ELISA analysis in lung tissue, OVA-induced asthma. The following applies: palmitic acid 5, 25, 50 mg/kg oral, particularly the 50 mg/kg group, FIG. 22. As to the method: as §4
For the next assay, the system named is IL-12p40. The assay is described as follows: ELISA analysis in lung tissue, OVA-induced asthma. The note with it: palmitic acid 5, 25, 50 mg/kg oral, particularly the 25 mg/kg group, FIG. 21. As to the method:
as §4

The next assay deals with IL-5. The assay is described as follows: ELISA analysis in lung tissue, OVA-induced asthma. The following applies: palmitic acid 5, 25, 50 mg/kg oral, particularly the 5 mg/kg group, FIG. 23. As to the method: as §4
A further assay deals with IFN-γ. In words: ELISA analysis in lung tissue, OVA-induced asthma. The following applies: palmitic acid 5, 25, 50 mg/kg oral, vs OVA, FIG. 20. As to the method: as §4
Assay [6] concerns IL-6. In words: ELISA analysis in lung tissue, OVA-induced asthma. The following applies: palmitic acid 5, 25, 50 mg/kg oral, particularly the 50 mg/kg group. As to the method:
as §4

In the case of `CCCCCCCCCCCCCCCC(=O)O` [palmitic acid], in the assay with TNF-α [1], the “Th17-related cytokine TNF-α (cDNA level, RT-PCR)” value is “dose-dependently decreased”. Also, the “Th2-related cytokine IL-13 (cDNA level, RT-PCR)” value in the assay with IL-13 [2] is listed as “dose-dependently decreased”. The “Th17-related cytokine IL-6 (cDNA level, RT-PCR)” value in the assay on IL-6 [3] is “dose-dependently decreased”. Further, the “expression level of TNF-α” value in the assay with TNF-α [4] is reported as “decreased”. Besides, in the assay with IL-13 [5], the “expression level of IL-13” value is given as “decreased”. For the same compound, in the assay with IL-4, the “expression level of IL-4” value is “decreased”. Besides, the “expression level of IL-12p40” value in the assay on IL-12p40 was “decreased”. The “expression level of IL-5” value with IL-5 is listed as “decreased”. Besides, the “expression level of IFN-γ” value with IFN-γ was “dose-dependently decreased”. Besides, the “expression level of IL-6” value in the assay with IL-6 [6] is listed as “decreased”.
